The values below come from ChEMBL document CHEMBL1138531, “Pharmacokinetics of penicillin G in infants with a gestational age of less than 32 weeks” (Antimicrob Agents Chemother, 2007).

Holding throughout (assay type): ADME, organism-based
Data set [1] in a line: Volume of distribution in neonates. The settings on record: human, in vivo.
Data set [2] is described as follows: Volume of distribution in iv dosed neonates with gestational age of 27 to 40 weeks. The following applies: human, in vivo.
Data set [3] can be described thus: Volume of distribution in central compartment in preterm neonates with septicemia or invasive infections with gestational age of less than 32 weeks at 50000 U/kg, iv administered every 12 hrs. The following applies: human, in vivo, read-out: Vc.
Data set [4] in a line: Half life in iv dosed neonates with gestational age of 27 to 40 weeks. The settings on record: human, in vivo.
Data set [5] can be described thus: Clearance in preterm neonates with septicemia or invasive infections with gestational age of less than 32 weeks at 50000 U/kg, iv administered every 12 hrs. The following applies: human, in vivo.
Data set [6] is described as follows: Volume of distribution at steady state in preterm neonates with septicemia or invasive infections with gestational age of less than 32 weeks at 50000 U/kg, iv administered every 12 hrs. The following applies: human, in vivo, read-out: Vdss.
Data set [7] relates to Homo sapiens. In words: Apparent peripheral volume of distribution in preterm neonates with septicemia or invasive infections with gestational age of less than 32 weeks at 50000 U/kg, iv administered every 12 hrs. The settings on record: in vivo.
The nature of data set [8]: Clearance in iv dosed neonates with gestational age of 27 to 40 weeks. The following applies: human, in vivo.
A short description of data set [9]: Elimination half life in preterm neonates with septicemia or invasive infections with gestational age of less than 32 weeks at 50000 U/kg, iv administered every 12 hrs. The following applies: human, in vivo, read-out: beta t1/2 (converted).
For data set [10], the system named is Homo sapiens. In words: Intercompartmental clearance in preterm neonates with septicemia or invasive infections with gestational age of less than 32 weeks at 50000 U/kg, iv administered every 12 hrs. The following applies: in vivo.

The clearance is the volume of plasma or blood freed of the substance per unit of time.

Turning to `CC1(C)S[C@@H]2[C@H](NC(=O)[C@H](N)c3ccccc3)C(=O)N2[C@H]1C(=O)O` [AMPICILLIN], the Vd in [1] came to 0.3 L/kg.
For the molecule `CC1(C)S[C@@H]2[C@H](NC(=O)Cc3ccccc3)C(=O)N2[C@H]1C(=O)O` [PENICILLIN G], the Vd worked out at 0.61 L/kg in data set [2], 0.359 L in data set [3], 0.45 L/kg in [1] and 0.54 L in [6]. The half-life in data set [4] was 3.8 h; in data set [9], 3.9 h. Moreover, the clearance was 1.72 mL/min in data set [5] and 2 mL/min/kg in data set [8]. Also, the Vp/F in the data set with Homo sapiens [7] was found to be 0.152 L. Also, the CL in the data set on Homo sapiens [10] worked out at 0.774 L/h.
`CC1(C)S[C@@H]2[C@H](NC(=O)[C@H](N)c3ccc(O)cc3)C(=O)N2[C@H]1C(=O)O` [AMOXICILLIN] showed a Vd in [1] of 0.41 L/kg.
